{"source": "patent US20080242682A1", "about": "“Preventive or Therapeutic Agent for Sleep Disorder” (Takeda Pharmaceutical Company Limited, priority 2004, published 2008)", "key": {"[1]": {"tested_on": "Macaca fascicularis", "assay": "Experiment 1: sleep electroencephalogram (sleep latency and sleep duration in the night) in monkeys after oral administration", "type": "in vivo", "conditions": "female Macaca fascicularis, compound A 0.3 mg/kg, ritanserin 1 mg/kg; for SWS (slow-wave sleep) duration in breakdown of sleep duration / total sleep duration: 12 hours from lights-out to lights-on, drug-treated value; for sleep latency of LS / sleep latency of SWS: before lights-out, drug-treated value (vs vehicle, crossover)", "protocol": "3 Female Macaca fascicularis were used for experiment. Drugs were administered according to crossover design. Test animals were operated to place an electrode to measure electroencephalogram, and were naturalized fully to test cage. The test animals were raised under light-dark cycle of 12 hour-light period and 12 hour-dark period (light period is from 6:00 to 18:00).\nThe dose of compound A was 0.3 mg/kg, and the dose of ritanserin was 1 mg/kg, and these were suspended in 0.5% methylcellulose solution to make dosage of 1 ml/kg. As control, 0.5% methylcellulose solution was used. Administration was conducted orally using transnasal catheter 5 to 10 minutes before extinction (17:50-17:55).\nMeasurement items were electroencephalogram, ocular movement and myogenic potential, and behavior was observed using infrared camera. Measurement was carried out for 12 hours from lights-out (18:00) to lights-on (6:00).\nData analysis was carried out for sleep latency and total sleep duration in the night."}, "[2]": {"tested_on": "Cat", "assay": "Experiment 2: effect of combined use of compound A and gabapentin (GBP) on sleep wakefulness of cat (sleep electroencephalogram)", "type": "in vivo", "conditions": "oral capsule, 8 hours after administration, compound A 0.1 mg/kg, gabapentin 10 mg/kg", "protocol": "Used animals: 4 Siamese cats (purchased from Narc co.), 2 European shorthairs (purchased from Nisseiken co. Ltd.) and 1 mongrel cat (purchased from Narc co.) were used.\nUnder pentobarbital anesthesia, the following electrode and the like were implanted. An antibiotic was administered to prevent bacterial infection, and taming to cage for measuring electroencephalogram was started from 3 to 4 days after the operation. Measurement of electroencephalogram was carried out after 1 to 2 weeks of taming. • electrode for recording electroencephalogram in frontal lobe of cerebral cortex, frontal lobe and hippocampus • electrode for electrooculogram in orbit bone • stainless wire for recording electromyogram in dorsal cervical muscle […]\nAfter being attached the electrodes for measurement from about 8:30 in the morning, the cats were placed in test box. Administration was conducted by 9:55 to 10:05 in the morning, and the sleep electroencephalogram for 8 hours after administration was measured.\nElectroencephalogram data was obtained using Synafit 2500 of NEC Saneisha. […] In addition, the stage judged to be at slow-wave sleep was extracted, frequency analysis was carried out, and power spectrum during slow-wave sleep was calculated. […]"}}, "data": [{"smiles": "Cc1nc2sccn2c(=O)c1CCN1CCC(=C(c2ccc(F)cc2)c2ccc(F)cc2)CC1", "note": "[ritanserin, reference compound]", "values": [{"measurement": "SWS (slow-wave sleep) duration in breakdown of sleep duration", "setting": "[1]", "value": 249, "unit": "min"}, {"measurement": "total sleep duration", "setting": "[1]", "value": 573, "unit": "min"}, {"measurement": "sleep latency of LS", "setting": "[1]", "value": 12.0, "unit": "min"}, {"measurement": "sleep latency of SWS", "setting": "[1]", "value": 39.3, "unit": "min"}]}, {"smiles": "CCC(=O)NCC[C@@H]1CCc2ccc3c(c21)CCO3", "note": "[compound A, (S)—N-[2-(1,6,7,8-tetrahydro-2H-indeno[5,4-b]furan-8-yl)ethyl]propionamide]", "values": [{"measurement": "total slow-wave sleep duration", "setting": "[2]", "value": 124.9, "unit": "min"}, {"measurement": "SWS (slow-wave sleep) duration in breakdown of sleep duration", "setting": "[1]", "value": 135, "unit": "min"}, {"measurement": "total sleep duration", "setting": "[1]", "value": 610, "unit": "min"}, {"measurement": "sleep latency of LS", "setting": "[1]", "value": 13.3, "unit": "min"}, {"measurement": "sleep latency of SWS", "setting": "[1]", "value": 31.3, "unit": "min"}]}]}
